Measurements published in patent US20220008390A1, “COMPOSITIONS AND METHODS FOR TREATING PAIN AND/OR INFLAMMATION” (Neumentum, Inc., priority 2020, published 2022).

Key:
[1] = system: carrageenan-induced paw-edema; test: rat carrageenan-induced paw-edema model; type: in vivo
Procedure: 5-Methyl-1H-pyrazole-3-carboxylic acid (4-hydroxy-phenyl)-amide (Compound 1) was tested in the rat carrageenan paw-edema model. The rat carrageenan model is a preclinical model of inflammation and anti-inflammatory efficacy. Generally, animals are injected with carrageenan in one hind footpad, usually, half an hour or an hour after they are treated with the test compound while the other footpad is injected with saline as a control. The measurement of paw volume/thickness is then performed at specified time points. The objective of this study was to evaluate the effect of 5-Methyl-1H-pyrazole-3-carboxylic acid (4-hydroxy-phenyl)-amide (Compound 1) on paw edema in rat induced by intra-plantar injection of i-Carrageenan into the left hind paw. [table] On Day 1, carrageenan (1%; 100 uL) was injected subcutaneously into the plantar aspect of the left hindpaw of rats from all groups. Carrageenan injection was performed in conscious rats by restraining with hand and injection was done in the middle of the plantar surface area. The carrageenan solution was vortexed/stirred before each injection. • Route of Administration Oral gavage (PO) • Dosing Regimen: Single dose on Day 1, 1 h before Carrageenan injection. • Method: The day of dosing was designated as Day 1. The animals were not sedated. The volume for each dose was administered over one injection based on the body weight. Paw volume (left hind paw) was measured before carrageenan injection (baseline) and then at 1, 3, 6 and 8 hours (+/−2 minutes) after carrageenan injection (on Day 1). Measurements will be done using a digital plethysmometer as below: In brief, the Plethysmometer is a volume meter, designed for accurate measurements of inflammation-induced swelling. It consists of a water filled cell into which the paw along with the ankle joint is dipped. A transducer records the differences in water level caused by volume displacement and provides LCD readout of the exact volume gain due to swelling. Limb volumes were recorded onto a data sheet as they were measured. One trial per animal were recorded for each time point. […]

[2] = system: mechanical allodynia after severe spinal cord contusion injury; test: mechanical allodynia after severe spinal cord contusion injury (von Frey, Up-Down); type: in vivo, rat; conditions: 10 mg/kg/day by gavage for 7 days; day 28 post surgery
Procedure: 5-Methyl-1H-pyrazole-3-carboxylic acid (4-hydroxy-phenyl)-amide (Compound 1) treatment is tested in the suppression of the development of mechanical allodynia after severe spinal cord contusion injury in the rat. Thirteen week-old female Lewis rats (Charles River, Sulzfeld Germany) are housed under a 12:12 h dark/light regime and allowed free access to water and food. After one week of habituation the animals undergo general anesthesia with a mixture of isoflurane and air (induction: 5% isoflurane, maintenance: 2.2% isofluorane). […] The following groups were used: • Group I: SCI model+vehicle (1.5% Carboxymethylcellulose (CMC) in sterile water) by gavage for seven days • Group 2: SCI model+Compound 1 (10 mg/kg/day) in vehicle by gavage for 7 days The mechanical sensitivity response is measured as the direct pressure stimulus required for eliciting foot withdrawal in nonrestrained conditions. […] The 50% threshold force needed for paw withdrawal is calculated for both hind paws of each rat and the mean value of both hind paws is used to represent the mechanical sensitivity of this animal. The mechanical sensitivity (indicated by the 50% threshold force for paw withdrawals) is determined by the Up-Down method using von Frey filaments. […]

[3] = pharmacokinetic profile in third molar extraction study; type: in vivo; conditions: human; plasma, 1000 mg single dose, male subjects
Procedure: A single-center, randomized, double-blind, placebo- and active-controlled, parallel group study was performed to evaluate the efficacy, safety and pharmacokinetic profile of a single dose of 5-Methyl-1H-pyrazole-3-carboxylic acid (4-hydroxy-phenyl)-amide (Compound 1), over a 24-hour on-site period in moderate to severe pain after third molar extractions in up to 280 male subjects was performed.
The subjects were randomized such that one group received placebo (Group 1), one group received 1000 mg of Compound 1 (Group 2), and one group received 1000 mg acetaminophen (Group 3). All Groups received the treatment dose within up to 4.5 hours after oral surgery (third molar extraction).
Pain intensity/pain relief assessments were collected at 0.25, 0.5, 0.75, 1, 1.5, 2, hourly up to 12, 16, and 24 hours post-dose and at time of first rescue medication (oral ibuprofen). […] This unexpected result makes the compounds of the present invention suitable for chronic pain and/or inflammatory indications as disclosed herein.

[4] = system: moderate to severe pain after third molar extractions; test: single-dose clinical study, pain after third molar extractions (pain intensity difference); type: in vivo, human; conditions: 1000 mg single dose, up to 24 hours post-dose; FIG. 3
Procedure: A single-center, randomized, double-blind, placebo- and active-controlled, parallel group study was performed to evaluate the efficacy, safety and pharmacokinetic profile of a single dose of 5-Methyl-1H-pyrazole-3-carboxylic acid (4-hydroxy-phenyl)-amide (Compound 1), over a 24-hour on-site period in moderate to severe pain after third molar extractions in up to 280 male subjects was performed. Healthy male subjects, ages 18 to 45 years, were screened by medical history, vital signs, electrocardiogram (ECG), and clinical laboratory tests. Eligible subjects returned to the clinic on the day of surgery and completed baseline vital signs and clinical laboratory tests. The subjects were randomized such that one group received placebo (Group 1), one group received 1000 mg of Compound 1 (Group 2), and one group received 1000 mg acetaminophen (Group 3). All Groups received the treatment dose within up to 4.5 hours after oral surgery (third molar extraction). Pain intensity/pain relief assessments were collected at 0.25, 0.5, 0.75, 1, 1.5, 2, hourly up to 12, 16, and 24 hours post-dose and at time of first rescue medication (oral ibuprofen). […] This unexpected result makes the compounds of the present invention suitable for chronic pain and/or inflammatory indications as disclosed herein.

neuropathic pain = test: 12 week study in subjects with neuropathic pain; type: in vivo, human; conditions: arms including 1000 and 2000 mg/day
Source text: Subjects are diagnosed with neuropathic pain (chronic and ongoing for more than 3 months in contrast to an acute injury of nerve or nervous system).
In case of low back pain (mixed pain) a possible, probable or definite neuropathic pain component can be diagnosed via screening tools at screening/baseline visits, e.g. PAIN DETECT, LANSS, DN-4).
A 12 week study is designed to compare 5-Methyl-1H-pyrazole-3-carboxylic acid (4-hydroxy-phenyl)-amide (Compound 1) to placebo and to a standard (pregabalin).
There are 2-3 dosing arms for Compound 1 (including 1000 and 2000 mg/day).

rat formalin (1%) model = test: rat formalin (1%) test; type: in vivo; conditions: 300 mg/kg, oral, 1 hr pretreatment; 1% formalin intraplantar; FIG. 1
Procedure: 5-Methyl-1H-pyrazole-3-carboxylic acid (4-hydroxy-phenyl)-amide (Compound 1) was tested in the rat formalin (1%) model. The rat formalin test is a preclinical model of human painful conditions.
The formalin test in rat (or mice) is a valid and reliable model of nociception (sensation of pain) and is sensitive for various classes of analgesic drugs. Formalin is a solution of formaldehyde in water. The subcutaneous injection of dilute formalin induces pain in humans and nociceptive (presumptive of pain) behaviors in animals. Since it is painful when it is injected in humans, it is used as an animal model that is considered translational to human pain. […]
In the formalin model, pain response scoring is determined by recording the pain-like behaviors per unit of time including licking, flinching, or raising or shaking of the injected paw. […]
For all Groups, animals were acclimated to the observation chamber for about 15 minutes immediately prior to formalin injection. All animals received an intraplantar subcutaneous injection of 50 μL of 1% formalin into the left hind paw and were then be placed in the observation chamber immediately and formalin-evoked spontaneous nociceptive behaviors in the rats was continuously recorded for 0-60 min using a commercial camcorder. […]

Cc1cc(C(=O)Nc2ccc(O)cc2)n[nH]1 [Compound 1, 5-Methyl-1H-pyrazole-3-carboxylic acid (4-hydroxy-phenyl)-amide]
carrageenan-induced paw-edema (paw volume) ([1]; 300 mg/kg and 600 mg/kg, orally, single dose 1 h before carrageenan, FIG. 2A): dose-relatedly inhibited carrageenan-induced paw-edema | AUC of paw volume data, 300 mg/kg dose compared to 600 mg/kg dose ([1]; FIG. 2B): statistically significant difference | duration of the effect of a single oral dose ([1]; single oral dose, paw-edema inhibition): > 8 h | mechanical hypersensitivity (50% threshold force for paw withdrawal) [2]: mechanical hypersensitivity is reduced | half-life [3]: ~10 h | Pain intensity difference from baseline (PID) score compared with 1000 mg acetaminophen [4]: significantly greater and longer lasting PID score | pain intensity and signs and symptoms of neuropathy/hyperexcitability vs. placebo and standard (pregabalin) (neuropathic pain): shows improvement vs. placebo and improvement or comparable effects vs. standard | nociceptive behaviors in Phase II of the rat formalin test (rat formalin (1%) model): inhibited nociceptive behaviors
